The values that follow come from US20230099031A1, “BIFUNCTIONAL AGENTS FOR PROTEIN RECRUITMENT AND/OR DEGRADATION” (Orionis Biosciences, Inc., priority 2019, published 2023).

Common to all, as to type: cell-based
One assay concerns the target T1, CRBN (Homo sapiens, UniProt Q96SW2).
T1 construct: expressed in transfected cells; host or cells: HEK293T
Kind of assay: Competition Assay: MAPPIT-like, competition with trimethoprim-lenalidomide hybrid ligand for binding to CRBN in HEK293T cells. The conditions noted are these: protocol and reagents of Example 1; read-out: IC50 Competition.

The target in another assay is T2, SALL4 (Homo sapiens, UniProt Q96SW2+Q9UJQ4).
T2 construct: Full size proteins are fused for each of the target proteins tested; expressed in transfected cells; host or cells: HEK293T
Kind of assay: Recruitment Assay (MAPPIT-like): SALL4 recruitment, pSEL-SALL4+pMG1-CRBN. The settings on record: recruitment of SALL4, protocol of Example 2; read-out: EC50_SALL4. As to the method:
(§1) In this experimental set-up, cells are transfected with a construct encoding a CRBN-fusion protein and another one encoding a substrate-fusion protein. Test compound activity is assessed with increasing concentrations of test compounds (dose-response studies) to monitor the ability to promote CRBN-ligand-induced protein interaction.
(§2) Full size proteins are fused for each of the target proteins tested, except in the case of IKZF1 where isoform 7 is used, and BRD4, where isoform 3 is applied. For the study, the following construct combinations are used: IKZF1 recruitment: pSEL-CRBN+pMG1-IKZF1(isoform 7); ASS1 recruitment: pSEL-CRBN+pMG1-ASS1; SALL4 recruitment: pSEL-SALL4+pMG1-CRBN; DHFR recruitment: pCLG-DHFR+pMG1-CRBN; ESR1 recruitment: pSEL-CRBN+pMG1-ESR1; BRD4 recruitment: pSEL-CRBN+pMG1-BRD4(isoform 3). Cells are treated with erythropoietin (Epo; where pSEL-type receptor fusions constructs are used) or leptin (in the case pCLG-type receptor fusion constructs are applied) without or with the indicated dose of test compound at 24 hours after transfection. Luciferase activity is measured 24 hours after test compound treatment using the Luciferase Assay System kit (PROMEGA, Madison, Wis.) with an Ensight plate reader (PERKIN ELMER LIFE SCIENCES, Waltham, Mass.). Data points depict fold induction of the average luciferase activity of triplicate samples from Epo or leptin+test compound treated cells versus Epo or leptin only treated cells. Error bars represent standard deviations. Curves are fit using 4-parameter nonlinear regression in […] PRISM software.

The target of the next assay is T3, ASS1 (Homo sapiens, UniProt P00966+Q96SW2).
T3 construct: Full size proteins are fused for each of the target proteins tested; expressed in transfected cells; host or cells: HEK293T
Kind of assay: Recruitment Assay (MAPPIT-like): ASS1 recruitment, pSEL-CRBN+pMG1-ASS1. The settings on record: recruitment of ASS1, protocol of Example 2; for EC50: read-out: EC50_ASS1. How it is done:
as §1, §2

In the next assay the target is T4, IKZF1 (Homo sapiens, UniProt Q13422+Q96SW2).
T4 construct: expressed in transfected cells; host or cells: HEK293T
Kind of assay: Recruitment Assay (MAPPIT-like): IKZF1 recruitment, pSEL-CRBN+pMG1-IKZF1(isoform 7). The conditions noted are these: recruitment of IKZF1, protocol of Example 2; read-out: EC50_IKZF1. As to the method: as §1, §2

For `Cc1cccc2nnn(C3CCC(=O)NC3=O)c(=O)c12` (centres unmarked) [Compound C13247, 3-(5-methyl-4-oxo-1,2,3-benzotriazin-3-yl)piperidine-2,6-dione], the IC50 at CRBN was found to be 2290 nM. In addition, the EC50 on SALL4 is 402 nM; on ASS1, 8550 nM; at IKZF1, 2880 nM.

As for `CS(=O)(=O)Nc1cccc2c1CN(C1CCC(=O)NC1=O)C2=O` (centres unmarked) [Compound C22548, N-[2-(2,6-dioxo-3-piperidyl)-1-oxo-isoindolin-4-yl]methanesulfonamide], the 50% inhibitory concentration (IC50) on CRBN is 1110 nM. Further, the EC50 at SALL4 was 631 nM; on IKZF1, 494 nM. For the same compound, the “EC50_ASS1 (M)” value on ASS1 is reported as “>>”.

Turning to `COCC(=O)Nc1cccc2c1CN(C1CCC(=O)NC1=O)C2=O` (centres unmarked) [Compound C22564, N-[2-(2,6-dioxo-3-piperidyl)-1-oxo-isoindolin-4-yl]-2-methoxy-acetamide], the half-maximal inhibitory concentration (IC50) on CRBN amounted to 1670 nM. Also, the EC50 at SALL4 turned out to be 873 nM. Also, the “EC50_ASS1 (M)” value at ASS1 is “>>”.

In the case of `CCOC(=O)Nc1cccc2c1CN(C1CCC(=O)NC1=O)C2=O` (centres unmarked) [Compound C22622, ethyl N-[2-(2,6-dioxo-3-piperidyl)-1-oxo-isoindolin-4-yl]carbamate], the IC50 at CRBN stood at 225 nM. Moreover, the EC50 at SALL4 came out at 121 nM. On ASS1, the “EC50_ASS1 (M)” value is given as “>>”.

Regarding `O=C1CCC(N2Cc3cccc(F)c3C2=O)C(=O)N1` (centres unmarked) [Compound C23066, 3-(7-fluoro-1-oxo-isoindolin-2-yl)piperidine-2,6-dione], the 50% inhibitory concentration (IC50) on CRBN was 248 nM. The EC50 at SALL4 came to 88.2 nM. The “EC50_ASS1 (M)” value on ASS1 was “>>”.

`O=C1CCC(N2Cc3c(Cl)cccc3C2=O)C(=O)N1` (centres unmarked) [Compound C24031, 3-(4-chloro-1-oxo-isoindolin-2-yl)piperidine-2,6-dione]: the 50% inhibitory concentration (IC50) on CRBN came out at 11.5 nM. In addition, the EC50 at SALL4 is less than 13.7 nM; at ASS1, 259 nM; on IKZF1, 58.7 nM.

As for `Cc1cccc2c1CN(C1CCC(=O)NC1=O)C2=O` (centres unmarked) [Compound C28558, 3-(4-methyl-1-oxo-isoindolin-2-yl)piperidine-2,6-dione], the IC50 at CRBN amounted to 50.4 nM. In addition, the EC50 was less than 13.7 nM on SALL4, 368 nM on ASS1 and 77.4 nM at IKZF1.

`Cc1ccc2c(c1)CN(C1CCC(=O)NC1=O)C2=O` (centres unmarked) [Compound C28577, 3-(5-methyl-1-oxo-isoindolin-2-yl)piperidine-2,6-dione]: the IC50 at CRBN turned out to be 113 nM. Also, the EC50 at SALL4 is less than 13.7 nM; on ASS1 it was 653 nM; at IKZF1, 1610 nM.

On to `CC(=O)Nc1ccc2c(c1)CN(C1CCC(=O)NC1=O)C2=O` (centres unmarked) [Compound C29361, N-[2-(2,6-dioxo-3-piperidyl)-1-oxo-isoindolin-5-yl]acetamide], for which the IC50 at CRBN came to 1430 nM. Moreover, on SALL4, the EC50 stood at 186 nM. Besides, the “EC50_ASS1 (M)” value on ASS1 is given as “>>”.

Take `O=C1CCCC(N2Cc3c(cccc3[N+](=O)[O-])C2=O)C(=O)N1` (centres unmarked) [Compound C29737, 3-(4-nitro-1-oxo-isoindolin-2-yl)azepane-2,7-dione]: the EC50 on IKZF1 came to 1410 nM.

On to `O=C1CCC(N2Cc3c(NC(=O)Nc4cccc5c4CN(C4CCC(=O)NC4=O)C5=O)cccc3C2=O)C(=O)N1` (centres unmarked) [Compound C30231, 1,3-bis[2-(2,6-dioxo-3-piperidyl)-1-oxo-isoindolin-4-yl]urea], for which the concentration for half-maximal inhibition (IC50) at CRBN amounted to 247000 nM. The EC50 on SALL4 was found to be 1780 nM; on IKZF1, 2730 nM. Moreover, on ASS1, the “EC50_ASS1 (M)” value is “>>”.

Consider `O=C1CCC(N2Cc3cc(NCCNC(=O)Nc4ccccc4)ccc3C2=O)C(=O)N1` (centres unmarked) [Compound C35751, 1-[2-[[2-(2,6-dioxo-3-piperidyl)-1-oxo-isoindolin-5-yl]amino]ethyl]-3-phenyl-urea], for which the half-inhibitory concentration (IC50) at CRBN came out at 486 nM. For the same compound, the figures for the EC50 at SALL4 and on ASS1 were 232 nM and 1450 nM, respectively.

In the case of `CCOC(=O)NCCNc1ccc2c(c1)CN(C1CCC(=O)NC1=O)C2=O` (centres unmarked) [Compound C35754, ethyl N-[2-[[2-(2,6-dioxo-3-piperidyl)-1-oxo-isoindolin-5-yl]amino]ethyl]carbamate], the IC50 at CRBN amounted to 737 nM. Besides, on SALL4, the EC50 was determined as 278 nM. Also, the “EC50_ASS1 (M)” value at ASS1 is given as “>>”.

As for `NC(=O)c1cccc(NC(=O)CNc2ccc3c(c2)CN(C2CCC(=O)NC2=O)C3=O)c1` (centres unmarked) [Compound C35811, 3-[[2-[[2-(2,6-dioxo-3-piperidyl)-1-oxo-isoindolin-5-yl]amino]acetyl]amino]benzamide], on CRBN, the IC50 was 2440 nM. Besides, the EC50 on SALL4 was found to be 641 nM. In addition, the “EC50_ASS1 (M)” value on ASS1 was “>>”.

For `Cc1cccc2c(=O)n(C3CCC(=O)NC3=O)nnc12` (centres unmarked) [Compound C35830, 3-(8-methyl-4-oxo-1,2,3-benzotriazin-3-yl)piperidine-2,6-dione], the half-inhibitory concentration (IC50) at CRBN stood at 3460 nM. In addition, the results for the EC50 at SALL4 and on ASS1 were 588 nM and 5560 nM, respectively.

Take `N#CC1c2ccccc2C(=O)N1C1CCC(=O)NC1=O` (centres unmarked) [Compound C39453, 2-(2,6-dioxo-3-piperidyl)-3-oxo-isoindoline-1-carbonitrile]: the half-inhibitory concentration (IC50) on CRBN came to 7520 nM. The EC50 stood at 875 nM on SALL4 and 17100 nM on IKZF1.

In the case of `Nc1cccc2c1CN(C1CC(=O)NC1=O)C2=O` (centres unmarked) [Compound C47930, 3-(4-amino-1-oxo-isoindolin-2-yl)pyrrolidine-2,5-dione], the EC50 at IKZF1 came to 784 nM.

For `O=C1CCC(N2Cc3ncccc3C2=O)C(=O)N1` (centres unmarked) [Compound C47959, 3-(5-oxo-7H-pyrrolo[3,4-b]pyridin-6-yl)piperidine-2,6-dione], the IC50 on CRBN was 2570 nM. For the same compound, the EC50 at SALL4 came to 441 nM. Also, the “EC50_ASS1 (M)” value at ASS1 is recorded as “>>”.

For the compound `O=C(O)CNc1ccc2c(c1)CN(C1CCC(=O)NC1=O)C2=O` (centres unmarked) [Compound C47995, 2-[[2-(2,6-dioxo-3-piperidyl)-1-oxo-isoindolin-5-yl]amino]acetic acid], the IC50 on CRBN was 3710 nM. Moreover, the EC50 at SALL4 turned out to be 518 nM. For the same compound, on ASS1, the “EC50_ASS1 (M)” value is recorded as “>>”.

As for `N#Cc1cccc2c1CN(C1CCC(=O)NC1=O)C2=O` (centres unmarked) [Compound C48003, 2-(2,6-dioxo-3-piperidyl)-1-oxo-isoindoline-4-carbonitrile], the half-inhibitory concentration (IC50) on CRBN stood at 622 nM. Besides, the EC50 on SALL4 turned out to be 581 nM. Further, the “EC50_ASS1 (M)” value on ASS1 is listed as “>>”.

In the case of `O=C1CCC(N2Cc3cc4c(cc3C2=O)OCO4)C(=O)N1` (centres unmarked) [Compound C68126, 3-(7-oxo-5H-[1,3]dioxolo[4,5-f]isoindol-6-yl)piperidine-2,6-dione], the IC50 at CRBN was found to be 564 nM. Moreover, the EC50 on SALL4 was 319 nM. The “EC50_ASS1 (M)” value at ASS1 is listed as “>>”.

Consider `N#Cc1ccc(Nc2ccc3c(c2)CN(C2CCC(=O)NC2=O)C3=O)nn1` (centres unmarked) [Compound C80378, 6-[[2-(2,6-dioxo-3-piperidyl)-1-oxo-isoindolin-5-yl]amino]pyridazine-3-carbonitrile], for which the half-maximal inhibitory concentration (IC50) on CRBN was 2210 nM. The results for the EC50 on SALL4 and on ASS1 were 387 nM and 9420 nM, respectively.

Consider `O=C1CCC(N2Cc3cc(Nc4ncc5c(n4)COC5)ccc3C2=O)C(=O)N1` (centres unmarked) [Compound C80380, 3-[5-(5,7-dihydrofuro[3,4-d]pyrimidin-2-ylamino)-1-oxo-isoindolin-2-yl]piperidine-2,6-dione], for which the 50% inhibitory concentration (IC50) on CRBN worked out at 760 nM. Also, the figures for the EC50 at SALL4 and at IKZF1 were 9.89 nM and 1780 nM, respectively.

With `O=C1CCC(N2C(=O)c3ccccc3C2O)C(=O)N1` (centres unmarked) [Compound C89940, 3-(1-hydroxy-3-oxo-isoindolin-2-yl)piperidine-2,6-dione], the half-maximal inhibitory concentration (IC50) at CRBN was 3290 nM. Also, the EC50 at SALL4 worked out at 438 nM. Besides, at ASS1, the “EC50_ASS1 (M)” value is on record as “>>”.
